According to paper PMC12865225 (Clinical and Translational Science, 2026):

How the values were obtained:
[1] = Static model DDI risk evaluation (FDA R values), inhibitor concentrations; parameters: species or system human; details: for I in,max,u maximum unbound plasma inhibitor concentration at liver inlet: 1000 mg oral dose, Fa×Fg 1, ka 0.1/min; for Igut intestinal luminal concentration: dose/250 mL
Procedure: To evaluate potential clinical DDIs for transporters, the FDA R values were calculated according to the FDA In Vitro Drug Interaction Studies guidance. Equation (3) was used to estimate the maximum unbound plasma inhibitor concentration at liver inlet (I in,max) for OATPs, where f u,p is the unbound fraction in plasma, C max is the maximal total concentration in plasma, F a is the fraction absorbed after oral administration, F g is the fraction available after intestinal metabolism, k a is the first‐order absorption rate constant in vivo, dose is the oral dose, Q h is the hepatic blood flow, and R B is the blood‐to‐plasma concentration ratio. (3) Iin,max,u=fu,p×Cmax+Fa×Fg×ka×Dose/Qh×RB
Hepatic blood flow (Q h) was set to 1.620 L/min [31].

[2] = cited from earlier work; for Cmax: 1000 mg dose, read-out: total C max; for unbound fraction in plasma: static model input
OATP2B1 = molecular target: T1, OATP2B1 (Homo sapiens, UniProt O94956); assay: OATP2B1 inhibition, rosuvastatin uptake into transporter-expressing HEK293 cells; assay type: cell-based; details: for Calculated R-value OATP2B1 (hepatic): R = 1 + (I in,max,u/IC50), FDA cut-off ≥ 1.1; for Calculated R-value OATP2B1 (intestinal): R = I gut/IC50, FDA cut-off ≥ 10
T1 construct: expressed in transfected cells; host or cells: HEK293 (recombinant baculovirus-mediated transduction)
T1 sequence (O94956 1-709): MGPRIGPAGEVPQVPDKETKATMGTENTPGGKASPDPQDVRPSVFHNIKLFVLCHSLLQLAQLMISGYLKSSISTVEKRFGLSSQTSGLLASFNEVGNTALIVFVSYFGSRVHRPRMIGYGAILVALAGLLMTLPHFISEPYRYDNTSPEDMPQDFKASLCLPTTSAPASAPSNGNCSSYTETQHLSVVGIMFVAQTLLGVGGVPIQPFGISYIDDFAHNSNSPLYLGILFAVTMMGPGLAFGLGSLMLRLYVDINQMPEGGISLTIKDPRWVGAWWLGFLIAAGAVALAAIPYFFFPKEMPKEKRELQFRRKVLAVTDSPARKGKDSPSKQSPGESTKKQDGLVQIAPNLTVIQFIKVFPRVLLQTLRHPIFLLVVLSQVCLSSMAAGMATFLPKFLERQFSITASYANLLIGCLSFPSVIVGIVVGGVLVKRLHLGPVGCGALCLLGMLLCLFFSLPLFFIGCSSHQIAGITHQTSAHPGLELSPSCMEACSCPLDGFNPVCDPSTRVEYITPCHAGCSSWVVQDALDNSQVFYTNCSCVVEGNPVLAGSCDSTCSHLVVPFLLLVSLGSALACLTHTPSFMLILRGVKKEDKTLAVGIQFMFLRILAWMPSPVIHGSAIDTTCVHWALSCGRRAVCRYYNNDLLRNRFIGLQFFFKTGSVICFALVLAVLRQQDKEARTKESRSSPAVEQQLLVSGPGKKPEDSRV
Procedure: The human transporters OATP1B1, OATP1B3, OATP2B1, and OAT1‐OAT4 and a negative control protein (enhanced yellow fluorescent protein, eYFP) were transiently expressed in human embryonic kidney 293 (HEK293) cells by recombinant baculovirus‐mediated transduction. Baculoviruses carrying human genes for the transporters were prepared as reported previously. HEK293 cells were cultured in DMEM containing 10% fetal bovine serum at 37°C and 5% CO2 and passaged two to three times per week. For the transport studies, 0.05 × 10^6 cells for 48‐well plates (OATPs) or 0.06 × 10^6 cells for 24‐well plates (OATs) were seeded onto cell‐culture treated well plates coated with poly‐D‐lysine. After 1 day, cells were transduced to produce recombinant proteins by changing media to DMEM containing 30 μL (48‐well plates) or 60 μL (24‐well plates) of recombinant baculovirus and 3 mM (OATs) or 5 mM (OATPs) sodium butyrate in a total media volume of 500 μL. The cells were cultured for a further 2 days before the transport assays.
For the transport studies, media were removed and cells were washed once with warm transport uptake buffer (TP‐buffer—pH 7.4 HBSS with 25 mM HEPES and 4 mM sodium bicarbonate). Each experiment included triplicate (OATP) or duplicate (OAT) samples for every test condition. The uptake was started by removing liquid from wells and applying warm TP‐buffer (200 μL for 24‐well plates or 125 μL for 48‐well plates) containing a test compound to cells. Transport assays were terminated after a pre‐specified incubation time (reported in figure legends) by removing substrate solution and washing cells three times with cold TP‐buffer (300 μL for 48‐well plates and 400 μL for 24‐well plates). For the liquid chromatography mass spectrometry (LC–MS) analysis, compounds were extracted from cells with 125 μL (48‐well plates) or 250 μL (24‐well plates) of an ultrapure‐water solution containing 75% methanol and 0.1% formic acid, shaking at 250 RPM for 30 min. […] Samples were transferred to well plates, centrifuged at 3000 g for 30 min, and transferred to a new well plate for the analysis.
In the OATP inhibition assays, inhibitors in warm TP‐buffer were directly applied to cells after media removal, followed by a 30‐min preincubation step in the presence of inhibitors. […] OAT1 and OAT3 cells were lysed with 200 μL of 1 M sodium hydroxide for 10 min, and 150 μL of these samples were transferred to a black well plate for fluorescein quantification. […]
For the inhibition data analysis, the average of measured concentrations in the control cells was subtracted from the average of measured concentrations in transporter‐expressing cells for each inhibitor concentration and then normalized to the vehicle sample that represents 100% transport activity. […]

Compound: Cc1onc(-c2c(F)cccc2Cl)c1C(=O)N[C@@H]1C(=O)N2[C@@H]1SC(C)(C)[C@@H]2C(=O)O [Flucloxacillin]
- I in,max,u maximum unbound plasma inhibitor concentration at liver inlet [1]: 15.7 µM
- Igut intestinal luminal concentration [1]: 8813 µM
- Cmax [2]: 46 µM
- unbound fraction in plasma [2]: 0.06
- Calculated R-value OATP2B1 (hepatic) (OATP2B1): 1.2
- Calculated R-value OATP2B1 (intestinal) (OATP2B1): 137

Compound: Cc1onc(-c2c(Cl)cccc2Cl)c1C(=O)N[C@@H]1C(=O)N2[C@@H]1SC(C)(C)[C@@H]2C(=O)O [Dicloxacillin]
- I in,max,u maximum unbound plasma inhibitor concentration at liver inlet [1]: 5.51 µM
- I max,u maximal unbound plasma concentration at steady state ([1]; C max × f u): 1.34 µM
- Igut intestinal luminal concentration [1]: 8505 µM
- Cmax [2]: 67 µM
- unbound fraction in plasma [2]: 0.02
- Calculated R-value OATP2B1 (hepatic) (OATP2B1): 1.2
- Calculated R-value OATP2B1 (intestinal) (OATP2B1): 240
